From patent publication US20030036556A1, “Zonisamide use in headache” (priority 2001, published 2003)
Like-named read-outs stand apart in the source and are kept apart here.

What was measured:
[1] = system: refractory migraines and mixed headache disorders; test: Open-label adjunctive zonisamide treatment of refractory headache patients (Example 1); type: in vivo, human
Protocol: Thirty-three (33) patients from an active headache clinic population were selected for open-label treatment with zonisamide. All patients had refractory migraines and mixed headache disorders, as defined by International Headache Society criteria. All had failed or responded poorly to trials with other anticonvulsants as prophylactic therapy. Most patients (n=27) had failed at least 2 such agents, and 17 had failed 3 agents. […] (Table 1). Zonisamide was initiated as adjunctive therapy: 100 mg of the medication was given in the evening or at bedtime every fourth day for 4 to 5 doses. Consequently, dosing was increased to every third day, every other day, and finally to a daily dose. Dose adjustments of zonisamide were made in increments of 100 mg, every 2 to 3 weeks, with a daily maximum dose of 500 mg, in some cases. Headache severity was rated on a 0 to 10 numeric rating scale (NRS).

[2] = system: CDH (chronic daily headache); test: Zonisamide for prophylaxis of chronic daily headache (Example 2); type: in vivo, human; conditions: for Mean number of headache days per month: baseline 22
Protocol: Sixteen patients who received zonisamide for prophylaxis of CDH (i.e., >15 headache days/month) for at least 3 months were included in this study. […] Zonisamide therapy was initiated at 100 mg/day, and 6 patients were titrated to a zonisamide dosage of 200 mg/day after 2 weeks. Patient headache diaries were used to record information, regarding headache frequency, duration, severity, and disability ratings. Headache severity and disability were rated using a 4-point scale (0=none; 1=mild; 2=moderate; 3=severe). Headache diaries and clinic records were used to determine mean headache duration, frequency, severity, disability for each patient 1 month prior to initiation of zonisamide therapy (baseline) and again 3 months after stable zonisamide dosage was established.

[3] = system: chronic pain disorders (neuropathic pain), refractory migraine headaches; test: Zonisamide treatment of chronic pain and refractory headache patients (Example 3); type: in vivo, human
Excerpt: Twenty-five patients with various chronic pain disorders were selected for treatment with zonisamide. All had neuropathic pain of one kind or another. Fifteen had failed back/neck surgeries with ongoing radicular pain, 4 had complex regional pain syndrome (type 1), 4 had diabetic neuropathy, and 2 had painful sensory neuropathy. All had failed, or responded minimally at best, to trials of numerous other anticonvulsants (neuronal stabilizing agents) for prior treatment of pain symptoms. Eighteen were on such therapy at the time of starting zonisamide therapy. Twenty-two patients with refractory migraine headaches of mixed headache disorders were similarly selected for zonisamide therapy. Most (n=17) had failed 3 or more other neuronal stabilizing agents as prophylaxis therapy for their headaches. […] Zonisamide was begun at 100 mg every third day for 3 to 5 doses, with an increase to every-other-day dosing and then to a daily dose. Dosage changes were made every 2 weeks at a minimum. Headache and pain spores were rated on a 0 to 10 numeric rating scale by each patient.

[4] = system: chronic pain disorders, all with neuropathic pain; test: Zonisamide treatment of chronic pain patients (Example 4); type: in vivo, human
Protocol: This study included 30 patients with various chronic pain disorders, all with neuropathic pain (Table 1). All patients had previously failed or responded minimally to numerous other anticonvulsants (neuronal stabilizing agents) for treatment of painful symptoms. Twenty-three patients were on such therapy at the time zonisamide therapy was initiated. Zonisamide therapy was initiated at 100 mg every fourth day for 3 to 6 doses, with an increase to every third day, then to every other day, and finally to a daily dose. Adjustments in the dose of zonisamide were made no more than every 2 weeks. Headache and pain scores were rated on a 0 to 10 numeric rating scale (NRS) by each patient.

[5] = system: generalized seizures in the kindled rat model; conditions: cited from earlier work
cortical focal seizures = conditions: electrical stimulation of the visual cortex in cats; cited from earlier work
[6] = system: interictal spikes and secondarily generalized seizures; conditions: cortical application of tungstic acid gel in rats; cited from earlier work
[7] = system: interictal spikes and secondarily generalized seizures; conditions: cortical freezing in cats; cited from earlier work
sodium channels = conditions: in vitro, cited from earlier work
T-type Ca2+ currents = conditions: in vitro, cited from earlier work
[8] = system: GABA/benzodiazepine receptor ionophore complex; conditions: in vitro, cited from earlier work
[9] = system: cultured mouse spinal cord neurons; conditions: zonisamide 10-30 μg/mL; cited from earlier work
rat hippocampal slices = conditions: zonisamide 10-30 μg/mL; cited from earlier work
[10] = system: dopaminergic and serotonergic neurotransmission; conditions: in vivo microdialysis; cited from earlier work

## NS(=O)(=O)Cc1noc2ccccc12 [zonisamide, 1,2-benzisoxazole-3-methanesulfonamide]
[1]; 33 patients
  number of patients (n) with discontinuation due to side effects: 4
  number of patients (n) with no response: 3
[1]; after at least 2 months of zonisamide therapy, 33 patients
  number of patients (n) with 25% to 50% decrease in headache frequency: 8
[1]; after at least 2 months of zonisamide therapy, 33 patients, 10 still in titration
  number of patients (n) with ≧65% decrease in headache frequency: 6
[1]; of 33 patients
  patients who did not respond: 9 % of total
  patients who dropped the medication due to side effects: 12 % of total
[2]; 4-point scale (0=none to 3=severe), after 3 months, baseline 1.48
  Mean disability rating: 1.12
[2]; 4-point scale (0=none to 3=severe), after 3 months, baseline 1.84
  Mean headache severity rating: 1.41
[2]; after 3 months at stable dosage, mean dosage 137.5 mg/d, baseline 8.46
  Mean headache duration: 6.41 h
[2]; after 3 months at stable dosage, mean dosage 137.5 mg/d, n=16
  Mean number of headache days per month: 5 days/month
[2]; after 3 months at stable dosage, mean dosage 137.5 mg/d, n=16, listed as Zonismide
  Mean number of headache days per month: 14.5 days/month
[2]; after 3 months vs baseline
  decrease of mean disability rating: 24%
  decrease of mean headache rating: 23%
  reduction of mean headache duration: 24%
  reduction of total headache time: 50%
[2]; after 3 months vs baseline, mean dosage 137.5 mg/d
  reduction of mean number of headache days/month: 34%
[2]; in the 9 patients with weight loss
  mean weight loss: 11 lb.
[2]; n=16
  adverse events: number of patients with mild diarrhea: 2 patients
  adverse events: number of patients with weight loss: 9 patients
[2]; n=16, 3 months
  tolerability: well tolerated
[2]; on zonisamide after 3 months, baseline 186
  Total headache time: 93 hours/month
[3]; 0 to 10 numeric rating scale
  number of patients with pain reductions averaging 60% or better: 6 patients
  number of patients with reductions in pain of 30% to 50%: Six
  number of patients with slight reductions (less than 25%): Four
[3]; human, in vivo
  number of patients with no pain relief and/or side effects: 7 patients
[4]; 30 patients
  number of patients with no pain relief and/or reported side effects: 5 patients
  number of patients with slight (less than 25%) pain reductions: Five
[4]; after at least 2 months of zonisamide therapy, 30 patients
  number of patients with pain reductions of 60% or greater: 10 patients
[4]; after at least 2 months, 30 patients
  number of patients with 30% to 50% reductions in pain: 7 patients
[4]; of 30 patients
  share of patients with 30% to 50% reductions in pain: 23%
  share of patients with no pain relief and/or reported side effects: 17%
  share of patients with pain reductions of 60% or greater: 30%
  share of patients with slight (less than 25%) pain reductions: 17%
[5]
  effect on threshold for generalized seizures: anticonvulsant activity
Cortical focal seizures
  duration of cortical focal seizures: reduced the duration
[6]
  interictal spikes and secondarily generalized seizures: suppressed
[7]
  interictal spikes and secondarily generalized seizures: suppressed
Sodium channels
  effect on sodium channels: blocks
Sodium channels; listed as Zonisamide
  effect on sodium channels: inhibits
T-type Ca2+ currents
  effect on voltage-dependent, transient inward currents (T-type Ca2+ currents): reduces
T-type Ca2+ currents; listed as Zonisamide
  effect on voltage-dependent, transient inward currents (T-type Ca2+ currents): blocks
[8]; allosteric fashion
  binding to the GABA/benzodiazepine receptor ionophore complex: binds
[8]
  changes in chloride flux: does not produce changes
[9]
  post-synaptic GABA or glutamate responses: without affecting
  synaptically-driven electrical activity: suppresses
Rat hippocampal slices
  neuronal or glial uptake of [3H]-GABA: without affecting
[10]
  dopaminergic and serotonergic neurotransmission: facilitates
